Reference: publication PMC4601594, “An active site–tail interaction in the structure of hexahistidine-tagged Thermoplasma acidophilum citrate synthase” (Acta Crystallographica. Section F, Structural Biology …, 2015)
One block for each molecule: values may come before it.

Key:
[1] = target: T1, citrate synthase (TpCSH6-H222Q) (Thermoplasma acidophilum, UniProt P21553, H223Q); experiment: fluorescence titration (Trp348 quenching); format: binding
T1 construct: gene gltA; full-length TpCS with C-terminal His6 tag, H222Q mutant

[2] = target: T2, citrate synthase (TpCSH6) (Thermoplasma acidophilum, UniProt P21553); experiment: fluorescence titration (Trp348 quenching); format: binding
T2 construct: gene gltA; full-length TpCS (lacking N-terminal Met) with C-terminal His6 tag (TpCSH6)
T2 sequence (P21553 2-385): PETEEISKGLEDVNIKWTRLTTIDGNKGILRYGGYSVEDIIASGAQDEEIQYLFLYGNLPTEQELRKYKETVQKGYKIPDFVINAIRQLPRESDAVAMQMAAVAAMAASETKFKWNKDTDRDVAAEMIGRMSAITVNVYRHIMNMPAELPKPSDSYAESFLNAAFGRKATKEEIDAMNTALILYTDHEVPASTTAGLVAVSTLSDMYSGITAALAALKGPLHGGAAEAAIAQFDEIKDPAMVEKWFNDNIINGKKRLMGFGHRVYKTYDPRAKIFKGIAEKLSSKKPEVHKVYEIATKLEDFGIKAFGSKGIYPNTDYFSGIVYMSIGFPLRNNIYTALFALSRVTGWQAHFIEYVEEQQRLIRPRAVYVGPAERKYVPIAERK

[3] = target: T2, citrate synthase (TpCSH6); experiment: fluorescence titration of the TpCSH6–OAA complex (CitMX formation); also competitive inhibition versus AcCoA, Ki =[…]; format: binding
purified protein = substrate: CC(=O)SCCNC(=O)CCNC(=O)[C@H](O)C(C)(C)COP(=O)(O)OP(=O)(O)OC[C@H]1O[C@@H](n2cnc3c(N)ncnc32)[C@H](O)[C@@H]1OP(=O)(O)O; experiment: purified protein; conditions: oxaloacetate (co-substrate) AcCoA binding site (His222, Asp317)

T1 sequence (P21553 2-385 H223Q): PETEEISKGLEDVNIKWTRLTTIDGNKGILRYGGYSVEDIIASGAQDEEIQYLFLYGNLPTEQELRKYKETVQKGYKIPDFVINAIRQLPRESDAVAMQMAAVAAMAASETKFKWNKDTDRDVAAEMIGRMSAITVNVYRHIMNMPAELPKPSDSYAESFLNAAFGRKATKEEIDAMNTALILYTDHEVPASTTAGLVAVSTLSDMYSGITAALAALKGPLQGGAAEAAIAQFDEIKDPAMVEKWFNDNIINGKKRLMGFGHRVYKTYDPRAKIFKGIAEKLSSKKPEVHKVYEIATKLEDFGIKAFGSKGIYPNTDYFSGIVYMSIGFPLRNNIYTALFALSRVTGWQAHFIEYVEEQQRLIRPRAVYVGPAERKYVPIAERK

Molecule: O=C(O)CC(=O)C(=O)O [OAA, oxaloacetate]
Kd [1]: 19 µM
Kd [2]: 760 nM

Kd [3]: 1500 nM
Molecule: CC(=O)CCCNC(=O)CCNC(=O)[C@H](O)C(C)(C)COP(=O)(O)OP(=O)(O)OC[C@H]1O[C@@H](n2cnc3c(N)ncnc32)[C@H](O)[C@@H]1OP(=O)(O)O [AcMX, dethiaacetyl-CoA]

B1: citrate synthase (TpCSH6) (Thermoplasma acidophilum DSM 1728) (protein)
chain: PETEEISKGLEDVNIKWTRLTTIDGNKGILRYGGYSVEDIIASGAQDEEIQYLFLYGNLPTEQELRKYKETVQKGYKIPDFVINAIRQLPRESDAVAMQMAAVAAMAASETKFKWNKDTDRDVAAEMIGRMSAITVNVYRHIMNMPAELPKPSDSYAESFLNAAFGRKATKEEIDAMNTALILYTDHEVPASTTAGLVAVSTLSDMYSGITAALAALKGPLHGGAAEAAIAQFDEIKDPAMVEKWFNDNIINGKKRLMGFGHRVYKTYDPRAKIFKGIAEKLSSKKPEVHKVYEIATKLEDFGIKAFGSKGIYPNTDYFSGIVYMSIGFPLRNNIYTALFALSRVTGWQAHFIEYVEEQQRLIRPRAVYVGPAERKYVPIAERK
Km (purified protein): 3.0 µM
